{"source": "patent US20150315241A1", "about": "“Antibiotic Peptides” (priority 2007, published 2015)", "key": {"E. coli 45849": {"test_system": "E. coli 45849", "test": "Growth inhibition assay (MIC)", "assay_type": "cell-based, Escherichia coli", "experimental": "(§1) The minimal inhibition concentrations (MIC) of the apidaecin-derived peptides and peptide-derivatives were determined by a growth inhibition assay using a serial peptide dilution in sterilized round-bottom 96-well plates (polystyrene, U-bottom, Greiner Bio-One GmbH) with a final volume of 100 μL per well. The bacteria, e.g., E. coli BL21 A1, were grown in nutrient broth (NB, Carl Roth GmbH+Co. KG, Karlsruhe, Germany) at 37° C. over night. To each well of the 96-well plate, 50 μL of the overnight culture adjusted to 5×10^6 CFU/mL in 1% TSB were added. Lyophilized peptides and peptidomimetics were dissolved in 1% TSB (tryptic soy broth) or water to give a final concentration of 250 μg/mL. Fifty μL of the peptide or peptidomimetics solution were added to the first well of a row on the plate and mixed. Fifty μL of the first well containing the peptide solution were transferred to the second well, mixed and again 50 μL transferred to the next well and so on. Thereby, a two-fold dilution series was obtained starting at 250 μg/mL in the first well down to 120 ng/mL in the 12th well of a row giving a final peptide or peptidomimetics concentration from 125 μg/mL (well 1) to 60 ng/mL (well 12). Plates were incubated at 37° C. for 20 hrs. The absorbance was measured at 595 nm using a TECAN micro plate spectrophotometer (Tecan, Germany). All peptides and peptidomimetics were measured in triplicates. Sterilized water was used as a negative control.\n(§2) The following multidrug resistant bacteria strains were tested: • Eschericha coli 45849 and D31, • Klebsiella pneumoniae 123132 and K6, • Salmonella typhi S5 and Salmonella enterica subsp. enterica serovar Typhimurium (ATCC 700408), • Rhizobium radiobacter (ATCC 15955 deposited as Agrobacterium tumefaciens)."}, "E. coli D31": {"test_system": "E. coli D31", "assay_type": "cell-based, Escherichia coli", "conditions": "D31, 20 h", "experimental": "as §1, §2"}, "S. typhi S5": {"test_system": "S. typhi S5", "assay_type": "cell-based, Salmonella typhi", "conditions": "S5, 20 h", "experimental": "as §1, §2"}, "[1]": {"test_system": "R. radiobatter ATCC 15955", "test": "Growth inhibition assay (MIC)", "assay_type": "cell-based, Rhizobium radiobacter", "experimental": "as §1, §2"}, "[2]": {"test_system": "S. enterica subsp. Enterica serovar. typhi G10215 ATCC 700408", "assay_type": "cell-based, Salmonella enterica", "conditions": "ATCC 700408, 20 h", "experimental": "as §1, §2"}, "[3]": {"test_system": "K. Pneumonia K6, ATCC 700603", "test": "Growth inhibition assay (MIC)", "assay_type": "cell-based, Klebsiella pneumoniae", "conditions": "multidrug resistant strain; 1% TSB, 37° C., 20 hrs", "experimental": "as §1, §2"}, "K. Pneumonia 123132": {"test_system": "K. Pneumonia 123132", "test": "Growth inhibition assay (MIC)", "assay_type": "cell-based, Klebsiella pneumoniae", "experimental": "as §1, §2"}, "[4]": {"conditions": "multidrug resistant strain, 1% TSB, 37° C., 20 hrs"}}, "note": "Where a SMILES comes first, the peptide text is derived from it. [ ]: non-standard residue; d: D form. Cha = N[C@@H](CC1CCCCC1)C(=O)O; NMeL = CN[C@@H](CC(C)C)C(=O)O; Orn = NCCC[C@H](N)C(=O)O"}
{"compound": "CC[C@H](C)[C@H](NC(=O)[C@H](Cc1ccc(O)cc1)NC(=O)[C@@H](NC(=O)[C@@H]1CCCN1C(=O)[C@H](CCCNC(=N)N)NC(=O)[C@H](CC(N)=O)NC(=O)[C@H](CC(N)=O)NC(=O)CN)C(C)C)C(=O)N1CCC[C@H]1C(=O)N[C@@H](CCCNC(=N)N)C(=O)N1CCC[C@H]1C(=O)N[C@@H](CCCNC(=N)N)C(=O)N1CCC[C@H]1C(=O)N1CCC[C@H]1C(=O)N[C@@H](Cc1c[nH]cn1)C(=O)N1CCC[C@H]1C(=O)N[C@@H](CCCNC(=N)N)C(=O)N(C)[C@@H](CC(C)C)C(N)=O", "note": "[compound 34] (H-GNNRPVYIPRPRPPHPR[NMeL]-NH2)", "values": [{"measurement": "MIC E. coli 45849", "setting": "E. coli 45849; [4]", "value": 4, "unit": "µg/mL"}, {"measurement": "MIC E. coli D31", "setting": "E. coli D31", "value": 8, "unit": "µg/mL"}, {"measurement": "MIC S. typhi S5", "setting": "S. typhi S5", "value": 8, "unit": "µg/mL"}, {"measurement": "MIC R. radiobatter ATCC 15955", "setting": "[1]; [4]", "value": 1.3, "unit": "µg/mL"}, {"measurement": "MIC S. enterica subsp. Enterica serovar. typhi G10215 ATCC 700408", "setting": "[2]", "value": "4 to 8", "unit": "µg/mL"}, {"measurement": "MIC K. Pneumonia K6, ATCC 700603", "setting": "[3]", "value": 32, "unit": "µg/mL"}, {"measurement": "MIC K. Pneumonia 123132", "setting": "K. Pneumonia 123132; [4]", "value": 32, "unit": "µg/mL"}]}
{"compound": "CC[C@H](C)[C@H](NC(=O)[C@H](Cc1ccc(O)cc1)NC(=O)[C@@H](NC(=O)[C@@H]1CCCN1C(=O)[C@H](CCCNC(=N)N)NC(=O)[C@H](CC(N)=O)NC(=O)[C@H](CC(N)=O)NC(=O)[C@H](CCCN)NC(C)=O)C(C)C)C(=O)N1CCC[C@H]1C(=O)N[C@@H](CCCN)C(=O)N1CCC[C@H]1C(=O)N[C@@H](CCCNC(=N)N)C(=O)N1CCC[C@H]1C(=O)N1CCC[C@H]1C(=O)N[C@@H](Cc1c[nH]cn1)C(=O)N1CCC[C@H]1C(=O)N[C@@H](CCCNC(=N)N)C(=O)N[C@@H](CC1CCCCC1)C(N)=O", "note": "[compound 46] (Ac-[Orn]NNRPVYIP[Orn]PRPPHPR[Cha]-NH2)", "values": [{"measurement": "MIC E. coli 45849", "setting": "E. coli 45849; 45849, 20 h", "value": 32, "unit": "µg/mL"}, {"measurement": "MIC E. coli D31", "setting": "E. coli D31", "value": 16, "unit": "µg/mL"}, {"measurement": "MIC S. typhi S5", "setting": "S. typhi S5", "value": 32, "unit": "µg/mL"}, {"measurement": "MIC R. radiobatter ATCC 15955", "setting": "[1]; ATCC 15955, 20 h", "value": 10.5, "unit": "µg/mL"}, {"measurement": "MIC S. enterica subsp. Enterica serovar. typhi G10215 ATCC 700408", "setting": "[2]", "value": 8, "unit": "µg/mL"}, {"measurement": "MIC K. Pneumonia K6, ATCC 700603", "setting": "[3]", "value": "32 to 64", "unit": "µg/mL"}, {"measurement": "MIC K. Pneumonia 123132", "setting": "K. Pneumonia 123132; 20 h", "value": "32 to 64", "unit": "µg/mL"}]}
{"compound": "CC[C@H](C)[C@H](NC(=O)[C@H](Cc1ccc(O)cc1)NC(=O)[C@@H](NC(=O)[C@@H]1CCCN1C(=O)[C@H](CCCNC(=N)N)NC(=O)[C@H](CC(N)=O)NC(=O)[C@H](CC(N)=O)NC(=O)[C@H](CCCN)NC(C)=O)C(C)C)C(=O)N1CCC[C@H]1C(=O)N[C@@H](CCCNC(=N)N)C(=O)N1CCC[C@H]1C(=O)N[C@@H](CCCNC(=N)N)C(=O)N1CCC[C@H]1C(=O)N1CCC[C@H]1C(=O)N[C@@H](Cc1c[nH]cn1)C(=O)N1CCC[C@H]1C(=O)N[C@@H](CCCNC(=N)N)C(=O)N[C@@H](CC(C)C)C(=O)OC", "note": "[compound 48] (Ac-[Orn]NNRPVYIPRPRPPHPRL-OMe)", "values": [{"measurement": "MIC E. coli 45849", "setting": "E. coli 45849; [4]", "value": 4, "unit": "µg/mL"}, {"measurement": "MIC E. coli D31", "setting": "E. coli D31", "value": 64, "unit": "µg/mL"}, {"measurement": "MIC S. typhi S5", "setting": "S. typhi S5", "value": 4, "unit": "µg/mL"}, {"measurement": "MIC R. radiobatter ATCC 15955", "setting": "[1]; [4]", "value": 1.3, "unit": "µg/mL"}, {"measurement": "MIC S. enterica subsp. Enterica serovar. typhi G10215 ATCC 700408", "setting": "[2]", "value": 16, "unit": "µg/mL"}, {"measurement": "MIC K. Pneumonia K6, ATCC 700603", "setting": "[3]", "value": 128, "unit": "µg/mL"}, {"measurement": "MIC K. Pneumonia 123132", "setting": "K. Pneumonia 123132; [4]", "value": 32, "unit": "µg/mL"}]}
{"compound": "CC[C@H](C)[C@H](NC(=O)[C@H](Cc1ccc(O)cc1)NC(=O)[C@@H](NC(=O)[C@@H]1CCCN1C(=O)[C@H](CCCNC(=N)N)NC(=O)[C@H](CC(N)=O)NC(=O)[C@H](CC(N)=O)NC(=O)[C@H](CCCN)NC(C)=O)C(C)C)C(=O)N1CCC[C@H]1C(=O)N[C@@H](CCCN)C(=O)N1CCC[C@H]1C(=O)N[C@@H](CCCNC(=N)N)C(=O)N1CCC[C@H]1C(=O)N1CCC[C@H]1C(=O)N[C@@H](Cc1c[nH]cn1)C(=O)N1CCC[C@H]1C(=O)N[C@@H](CCCNC(=N)N)C(=O)N[C@@H](CC(C)C)C(=O)OC", "note": "[compound 49] (Ac-[Orn]NNRPVYIP[Orn]PRPPHPRL-OMe)", "values": [{"measurement": "MIC E. coli 45849", "setting": "E. coli 45849; 45849, 20 h", "value": 2, "unit": "µg/mL"}, {"measurement": "MIC E. coli D31", "setting": "E. coli D31", "value": 32, "unit": "µg/mL"}, {"measurement": "MIC S. typhi S5", "setting": "S. typhi S5", "value": 4, "unit": "µg/mL"}, {"measurement": "MIC R. radiobatter ATCC 15955", "setting": "[1]; ATCC 15955, 20 h", "value": 1.3, "unit": "µg/mL"}, {"measurement": "MIC S. enterica subsp. Enterica serovar. typhi G10215 ATCC 700408", "setting": "[2]", "value": 8, "unit": "µg/mL"}, {"measurement": "MIC K. Pneumonia K6, ATCC 700603", "setting": "[3]", "value": 128, "unit": "µg/mL"}, {"measurement": "MIC K. Pneumonia 123132", "setting": "K. Pneumonia 123132; 20 h", "value": 64, "unit": "µg/mL"}]}
{"compound": "CC[C@H](C)[C@H](NC(=O)[C@H](Cc1ccc(O)cc1)NC(=O)[C@@H](NC(=O)[C@@H]1CCCN1C(=O)[C@H](CCCNC(=N)N)NC(=O)[C@H](CC(N)=O)NC(=O)[C@H](CC(N)=O)NC(=O)[C@@H](N)CCCN)C(C)C)C(=O)N1CCC[C@H]1C(=O)N[C@@H](CCCNC(=N)N)C(=O)N1CCC[C@H]1C(=O)N[C@@H](CCCNC(=N)N)C(=O)N1CCC[C@H]1C(=O)N1CCC[C@H]1C(=O)N[C@@H](Cc1c[nH]cn1)C(=O)N1CCC[C@H]1C(=O)N[C@@H](CCCNC(=N)N)C(=O)N(C)[C@@H](CC(C)C)C(N)=O", "note": "[compound 47] (H-[Orn]NNRPVYIPRPRPPHPR[NMeL]-NH2)", "values": [{"measurement": "MIC E. coli 45849", "setting": "E. coli 45849; [4]", "value": 4, "unit": "µg/mL"}, {"measurement": "MIC E. coli D31", "setting": "E. coli D31", "value": 8, "unit": "µg/mL"}, {"measurement": "MIC S. typhi S5", "setting": "S. typhi S5", "value": 32, "unit": "µg/mL"}, {"measurement": "MIC R. radiobatter ATCC 15955", "setting": "[1]; [4]", "value": 1.3, "unit": "µg/mL"}, {"measurement": "MIC S. enterica subsp. Enterica serovar. typhi G10215 ATCC 700408", "setting": "[2]", "value": 8, "unit": "µg/mL"}, {"measurement": "MIC K. Pneumonia K6, ATCC 700603", "setting": "[3]", "value": "32 to 64", "unit": "µg/mL"}, {"measurement": "MIC K. Pneumonia 123132", "setting": "K. Pneumonia 123132; [4]", "value": 32, "unit": "µg/mL"}]}
